Assays:
PC3 cells [1] = test: Apoptosis detection by annexin V/PI assay; type: cell-based, Human; settings: 25 μM, 6 h
From the text: High expression of COX-2 is found in various cancers, however, for PCa cell lines as well as tissue, contradictory results exist. We therefore tested anti-proliferative properties of Platin-A on androgen-responsive LNCaP and androgenunresponsive PC3 and DU145 PCa cells that differ in their malignant potentials. […] However, in LNCaP cells, Platin-A activity was better than an equimolar mixture of cisplatin and aspirin. In general, Pt(IV) compounds are less cytotoxic compared to their active Pt(II) form. […] To evaluate whether Platin-A-dependent inhibition of cancer cell proliferation is associated with apoptosis, Alexa Fluor® 488 annexin V/propidium iodide (PI) staining assay was carried out in PC3 cells and the data were analyzed by fluorescence assisted cell sorting. […]
PC3 cells were seeded at a density of 1×10^6 cells/mL on each well of a six well plate and allowed to grow overnight. […] Cell density was determined and cells were resuspended in 1× annexinVbinding buffer to 1×10^6 cells/mL preparing a sufficient volume to have 100 μL per assay. […] After the incubation period, 400 μL of 1× annexin-binding buffer was added to each sample, samples were gently mixed keeping the samples on ice, and the samples were analyzed on the flow cytometer immediately.

TNF-α = test: ELISA of TNF-α in LPS-stimulated RAW 264.7 macrophages; type: cell-based, mouse; settings: for LPS-induced TNF-α production: preventive: pretreatment 10 μM 6 h, then LPS 12 h
Procedure: (§2) RAW 264.7 cells were plated at a concentration of 10,000 cells/mL in 96 plates and allowed to grow overnight. For preventative anti-inflammatory treatment, Platin-A (10 μM), aspirin (10 μM), cisplatin (10 μM) and an equimolar ratio of cisplatin and aspirin (10 μM each) was incubated with the RAW cells for 6 h. Lipopolysaccharide (LPS) (100 ng/mL) was added and the cells were further incubated for 12 h. For therapeutic anti-inflammatory treatment, LPS (100 ng/mL) was added to the RAW cells and incubated for 6 h. Platin-A (10 μM), aspirin (10 μM), cisplatin (10 μM) and an equimolar ratio of cisplatin and aspirin (10 μM each) was then added to the cells and incubated for 12 h. ELISA was performed on the supernatants against the cytokines interleukin (IL)-6, IL-10, and TNF-α. Briefly, antibody coated plates were blocked with 10% FBS in PBS for 1 h at room temperature followed by 3 washes. RAW cell supernatants were incubated on the plates for 2 h at room temperature. This was immediately followed by washings and sequential incubations with the cytokine-biotin conjugate and streptavidin working solution. Finally, the substrate reagent containing 3,3′,5,5′-tetramethylbenzidine (100 μL) was added to each well, incubated for 15 min, the reaction was stopped by adding 50 μL H2SO4 (0.1 M). The absorbance was recorded at 450 nm using a BioTek Synergy HT well plate reader.

IL-6 = test: ELISA of IL-6 in LPS-stimulated RAW 264.7 macrophages; type: cell-based, mouse; settings: for LPS-induced IL-6 production: preventive: pretreatment 10 μM 6 h, then LPS 12 h
Procedure: as §2

LNCaP cells = test: MTT cytotoxicity assay in LNCaP cells; type: cell-based, Human; settings: 72 h
Procedure: (§1) Human prostate cancer cell lines LNCaP, PC3, and DU145 and RAW 264.7 macrophages were procured from the American type culture collection (ATCC). DU145 cells were grown at 37° C. in 5% CO2 in Eagle's minimum essential medium (EMEM) supplemented with 10% fetal bovine serum (FBS) and 1% penicillin/streptomycin. […] Cells were passed every 3 to 4 days and restarted from frozen stocks upon reaching pass number 20. The cytotoxic behaviors of cisplatin, aspirin, cisplatin+aspirin, and Platin-A were evaluated using the MTT assay against PC3, DU145, LNCaP, and RAW 264.7 cells. […] The cells were treated with different constructs at varying concentrations and incubated for 72 h at 37° C. except for RAW 264.7 macrophages. […] The cells were then treated with 20 μL of MTT (5 mg/mL in PBS) for 5 h. […] Each well was performed in triplicate. […] The IC50 values were reported at +95% confidence intervals.

PC3 cells [2] = test: MTT cytotoxicity assay in PC3 cells; type: cell-based, Human; settings: 72 h
Procedure: as §1

DU145 cells = test: MTT cytotoxicity assay in DU145 cells; type: cell-based, Human; settings: 72 h
Procedure: as §1

[3] = therapeutic: LPS activated macrophages then 10 μM for 12 h

| SMILES | apoptosis induction (annexin V/PI) (PC3 cells [1]) | LPS-induced TNF-α production (TNF-α) | LPS-induced IL-6 production (IL-6) | IC50 (LNCaP cells) | IC50 (PC3 cells [2]) | levels of TNF-α (TNF-α; [3]) | IC50 (DU145 cells) | levels of IL-6 (IL-6; [3]) |
| --- | --- | --- | --- | --- | --- | --- | --- | --- |
| CC(=O)Oc1ccccc1C(=O)O [Aspirin, Acetylsalicylic acid] | did not show any changes in healthy PC3 populations | did not show any preventive action | did not show any preventive action | – | – | – | – | – |
| N.N.[Cl][Pt][Cl] [Cisplatin, Cis-diamminedichloroplatinum(II)] | – | did not show any preventive action | did not show any preventive action | 15 ± 1 µM | 14 ± 4 µM | did not show any effect | 5 ± 2 µM | did not show any effect |
